Measurements reported in patent publication US20110263564A1, “PYRIDINE, BICYCLIC PYRIDINE AND RELATED ANALOGS AS SIRTUIN MODULATORS” (Sirtris Pharmaceuticals, Inc., priority 2008, published 2011).

The compounds below were run against T1, SIRT1 (Homo sapiens, UniProt Q96EB6) (assay: Mass spectrometry based assay of SIRT1 activity (deacetylation of a p53-based acetylated peptide)). Settings: 10 nM SIRT1, 0.5 μM peptide substrate, 120 μM βNAD+, 25 minutes at 25° C.
T1 sequence (Q96EB6 1-747): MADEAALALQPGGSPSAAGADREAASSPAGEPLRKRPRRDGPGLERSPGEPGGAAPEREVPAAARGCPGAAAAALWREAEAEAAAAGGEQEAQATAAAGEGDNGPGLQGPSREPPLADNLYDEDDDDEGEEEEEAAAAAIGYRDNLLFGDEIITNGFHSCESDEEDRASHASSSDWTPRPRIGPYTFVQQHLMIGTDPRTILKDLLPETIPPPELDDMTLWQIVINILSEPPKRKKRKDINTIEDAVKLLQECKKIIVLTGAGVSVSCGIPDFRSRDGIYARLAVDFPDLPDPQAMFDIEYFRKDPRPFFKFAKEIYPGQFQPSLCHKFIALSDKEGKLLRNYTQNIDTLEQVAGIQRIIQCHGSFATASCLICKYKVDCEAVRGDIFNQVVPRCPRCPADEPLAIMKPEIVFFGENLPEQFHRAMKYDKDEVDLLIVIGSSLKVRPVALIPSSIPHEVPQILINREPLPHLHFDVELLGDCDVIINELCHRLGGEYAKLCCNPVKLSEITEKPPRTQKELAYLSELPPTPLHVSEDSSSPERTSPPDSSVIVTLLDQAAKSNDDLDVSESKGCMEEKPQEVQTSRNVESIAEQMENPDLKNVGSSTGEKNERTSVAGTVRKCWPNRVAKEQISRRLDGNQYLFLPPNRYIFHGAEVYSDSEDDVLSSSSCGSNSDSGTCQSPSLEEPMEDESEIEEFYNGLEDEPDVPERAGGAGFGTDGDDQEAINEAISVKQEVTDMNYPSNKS
Format: biochemical
Text: A mass spectrometry based assay was used to identify modulators of SIRT1 activity. The mass spectrometry based assay utilizes a peptide having 20 amino acid residues as follows: Ac-EE-K(biotin)-GQSTSSHSK(Ac)NleSTEG-K(5TMR)-EE-NH2 (SEQ ID NO: 1) wherein K(Ac) is an acetylated lysine residue and Nle is a norleucine. The peptide is labeled with the fluorophore 5TMR (excitation 540 nm/emission 580 nm) at the C-terminus. The sequence of the peptide substrate is based on p53 with several modifications. In addition, the methionine residue naturally present in the sequence was replaced with the norleucine because the methionine may be susceptible to oxidation during synthesis and purification.
The mass spectrometry assay is conducted as follows: 0.5 μM peptide substrate and 120 μM βNAD^+ is incubated with 10 nM SIRT1 for 25 minutes at 25° C. in a reaction buffer (50 mM Tris-acetate pH 8, 137 mM NaCl, 2.7 mM KCl, 1 mM MgCl2, 5 mM DTT, 0.05% BSA). Test compounds may be added to the reaction as described above. […] After the 25 minute incubation with SIRT1, 10 μL of 10% formic acid is added to stop the reaction. Reactions are sealed and frozen for later mass spec analysis. Determination of the mass of the substrate peptide allows for precise determination of the degree of acetylation (i.e. starting material) as compared to deacetylated peptide (product).
A control for inhibition of sirtuin activity is conducted by adding 1 μL of 500 mM nicotinamide as a negative control at the start of the reaction (e.g., permits determination of maximum sirtuin inhibition). A control for activation of sirtuin activity is conducted using 10 nM of sirtuin protein, with 1 μL of DMSO in place of compound, to determine the amount of deacetylation of the substrate at a given timepoint within the linear range of the assay. This timepoint is the same as that used for test compounds and, within the linear range, the endpoint represents a change in velocity.
For the above assay, SIRT1 protein was expressed and purified as follows. […] The protein was expressed by induction with 1 mM IPTG as an N-terminal His-tag fusion protein at 18° C. overnight and harvested at 30,000×g. Cells were lysed with lysozyme in lysis buffer (50 mM Tris-HCl, 2 mM Tris[2-carboxyethyl]phosphine (TCEP), 10 μM ZnCl2, 200 mM NaCl) and further treated with sonication for 10 min for complete lysis. The protein was purified over a Ni-NTA column (Amersham) and fractions containing pure protein were pooled, concentrated and run over a sizing column (Sephadex S200 26/60 global). The peak containing soluble protein was collected and run on an Ion-exchange column (MonoQ). Gradient elution (200 mM-500 mM NaCl) yielded pure protein. This protein was concentrated and dialyzed against dialysis buffer (20 mM Tris-HCl, 2 mM TCEP) overnight. The protein was aliquoted and frozen at −80° C. until further use.
Sirtuin modulating compounds that activated SIRT1 were identified using the assay described above and are shown below in Table 1 for compounds of Formula (III)). The EC1.5 values represent the concentration of test compounds that result in 150% activation of SIRT1. The EC1.5 values for the activating compounds in Table 1 are represented by A (EC1.5<10.0 μM), B (EC1.5 10-25 μM), C (EC1.5>25 μM). The percent maximum fold activation is represented by A (Fold activation>200%) or B (Fold Activation<200%); “NT” means not tested; “ND” mean not determinable.

Structure (SMILES) | EC1.5 (concentration of test compound that results in 150% activation of SIRT1)
O=C(Nc1cccc(CN2CCOCC2)n1)C1CCCc2ccc(-c3cccc(C(F)(F)F)c3)nc21 (stereo not shown) [Compound 297] | C (EC1.5>25 μM)
O=C(NC1CCCc2ccc(-c3cccc(C(F)(F)F)c3)nc21)c1cccc(C2CCNC2)c1 (stereo not shown) [Compound 242] | A (EC1.5<10.0 μM)
O=C(Nc1ccnc(N2CCCC2)c1)C1CCCc2ccc(-c3cccc(C(F)(F)F)c3F)nc21 (stereo not shown) [Compound 273] | C (EC1.5>25 μM)
O=C(NC1CCCc2ccc(-c3cccnc3)nc21)c1cnccn1 (stereo not shown) [Compound 246] | C (EC1.5>25 μM)
O=C(Nc1ccncn1)C1CCOc2ccc(-c3cccc(C(F)(F)F)c3)nc21 (stereo not shown) [Compound 303] | C (EC1.5>25 μM)
O=C(Nc1nccs1)C1CCCc2ccc(-c3cccc(C(F)(F)F)c3)nc21 (stereo not shown) [Compound 279] | C (EC1.5>25 μM)
O=C(NC1CCCc2ccc(-c3cccc(C(F)(F)F)c3)nc21)c1cnccn1 (stereo not shown) [Compound 206, N-(2-(3-(trifluoromethyl)phenyl)-5,6,7,8-tetrahydroquinolin-8-yl)pyrazine-2-carboxamide] | A (EC1.5<10.0 μM)
CC(C)c1ccccc1-c1ccc2c(n1)C(NC(=O)c1cnccn1)CCC2 (stereo not shown) [Compound 258] | C (EC1.5>25 μM)
CC(NC(=O)c1ccccc1)c1cccc(-c2cccc(C(F)(F)F)c2)n1 (stereo not shown) [Compound 215] | C (EC1.5>25 μM)
O=C(NC1CCCc2ccc(-c3ccncc3)nc21)c1cnccn1 (stereo not shown) [Compound 247] | C (EC1.5>25 μM)
O=C(Nc1nc2ccccc2s1)C1CCCc2ccc(-c3cccc(C(F)(F)F)c3)nc21 (stereo not shown) [Compound 295] | C (EC1.5>25 μM)

Same assay, conditions: 10 nM SIRT1, 0.5 μM peptide substrate, 120 μM βNAD+, 25 minutes at 25° C.; read-out: % FOLD ACT. (percent maximum fold activation)

Structure (SMILES) | Emax
O=C(NC1CCCc2ccc(-c3cccc(C(F)(F)F)c3)nc21)c1cccc(C2CCNC2)c1 (stereo not shown) [Compound 242] | > 200%
O=C(NC1CCCc2ccc(-c3cccc(C(F)(F)F)c3)nc21)c1cnccn1 (stereo not shown) [Compound 206, N-(2-(3-(trifluoromethyl)phenyl)-5,6,7,8-tetrahydroquinolin-8-yl)pyrazine-2-carboxamide] | > 200%
